{"source": "paper PMC11303563", "about": "(Communications Medicine, 2024)", "type_in_all_cases": "in vivo, C57BL/6J mice", "key": {"[1]": {"tested_on": "high-fat diet (HFD)-induced obesity model mice", "assay": "Body weight of high-fat diet-induced obesity model mice", "set-up": "Body weight, Mean Diff. ND vs. treated: unit not given here", "details": "for Body weight, 95.00% CI of diff. ND vs. treated / Body weight, Mean Diff. ND vs. treated: ND group as comparator; for Body weight, 95.00% CI of diff. ND vs. treated / Body weight, Mean Diff. ND vs. treated / Body weight, 95.00% CI of diff. Vehicle vs. treated / Body weight, Mean Diff. Vehicle vs. treated: Tukey's multiple comparisons test; for Body weight, Mean Diff. Vehicle vs. treated / Body weight, group mean (Fig. 3a) / Body weight, individual mice (Fig. 3a): in g (unit assumed); for Body weight, group mean (Fig. 3a) / Body weight, individual mice (Fig. 3a) / decrease of body weight compared to vehicle: HFD mice; for Body weight, group mean (Fig. 3a): n 10; for decrease of body weight compared to vehicle: 3 weeks", "procedure": "The injection was given 6 h after light on. Food consumption and body weights were measured weekly. Food and water were provided to the animals ad libitum. The animals were treated according to the guidelines of Nagoya University, and all experimental procedures were approved by the Animal Experiment Committee of Nagoya University (A210715-003).\n(§1) Epididymal adipose tissue was weighed.\n(§2) Fig. 3 Effects of intraperitoneal injection of TH analogs on body weight and deposition of visceral fat. […] After three weeks of injection, body weight (a), and weight of the epididymal adipose tissue (b) were measured."}, "[2]": {"tested_on": "high-fat diet (HFD)-induced obesity model mice", "assay": "Weight of epididymal adipose tissue (visceral fat) in HFD mice", "details": "for Fig. 3b (weight of epididymal adipose tissue), group mean (Mean 2): n=10; for Fig. 3b (weight of epididymal adipose tissue), group mean (Mean 2) / Fig. 3b (weight of epididymal adipose tissue), Mean Diff. ND vs. treatment (Tukey) / Fig. 3b (weight of epididymal adipose tissue), Mean Diff. Vehicle vs. treatment (Tukey) / Epididymal adipose weight, individual mice (Fig. 3b): in mg (unit assumed); for Fig. 3b (weight of epididymal adipose tissue), Mean Diff. ND vs. treatment (Tukey): ND minus treated; for Fig. 3b (weight of epididymal adipose tissue), Mean Diff. Vehicle vs. treatment (Tukey): Vehicle minus treated", "procedure": "as §1, §2"}, "[3]": {"tested_on": "high-fat diet (HFD)-induced obesity model mice", "assay": "Serum lipid analysis (total cholesterol, triglycerides) in HFD mice", "set-up": "Serum TC (Fig. 4a), individual mouse values / Serum TG (Fig. 4b), individual mouse values / Serum TC (Fig. 4a), Mean Diff. ND vs. treatment (Tukey) / Serum TC (Fig. 4a), Mean Diff. Vehicle vs. treatment (Tukey) / Serum TC (Fig. 4a), group mean (Mean 2) / Mean Diff., ND vs. treated (Fig. 4b) / Mean Diff., Vehicle vs. treated (Fig. 4b) / Mean (Fig. 4b): unit not given here", "details": "for Serum TC (Fig. 4a), group mean (Mean 2) / Mean (Fig. 4b): n=10; for Serum TC (Fig. 4a), Mean Diff. ND vs. treatment (Tukey): ND minus treated; for Serum TC (Fig. 4a), Mean Diff. Vehicle vs. treatment (Tukey): Vehicle minus treated; for Mean Diff., ND vs. treated (Fig. 4b) / Mean Diff., Vehicle vs. treated (Fig. 4b): Tukey's multiple comparisons test; for Mean (Fig. 4b): group mean", "procedure": "(§3) Fig. 4 Effects of TH analogs on the accumulation of lipids in mice. […] After 3 weeks of injection, serum and liver tissues were collected, and the amount of serum cholesterol (a), serum triglycerides (b), liver cholesterol (c), liver triglycerides (d), and liver total lipids (e) were measured."}, "[4]": {"tested_on": "high-fat diet (HFD)-induced obesity model mice", "assay": "Hepatic lipid analysis (total lipid, triglyceride, total cholesterol) in HFD mice", "set-up": "Liver TC (Fig. 4c), individual mouse values / Liver TG (Fig. 4d), individual mouse values / Total lipid, liver (Fig. 4e), individual mouse values / Mean Diff., ND vs. treated (Fig. 4c) / Mean Diff., Vehicle vs. treated (Fig. 4c) / Mean (Fig. 4c) / Mean Diff., ND vs. treated (Fig. 4d) / Mean Diff., Vehicle vs. treated (Fig. 4d) / Mean (Fig. 4d) / Mean 2 (group mean), Fig. 4e / Mean Diff., Vehicle vs. treatment, Fig. 4e: unit not given here", "details": "0.1 µmol; HFD mice", "procedure": "Frozen livers were homogenized with chloroform-methanol (2:1), and the chloroform layer into which the liver lipids were extracted was collected. This extract was used to measure hepatic total lipid, triglyceride (TG), and total cholesterol (TC) contents. […] The total liver lipid content was measured according to the method described by Forch et al.[19].\nas §3"}}, "note": "“And” between values parts separate entries of the source, which are not always exact repeats. Equal values may be shown once."}
{"smiles": "Cc1cc(OCC(=O)O)cc(C)c1Cc1ccc(O)c(C(C)C)c1", "note": "[GC-1]", "values": [{"measurement": "Body weight, 95.00% CI of diff. ND vs. treated", "setting": "[1]; 0.1 µmol dose group", "value": "-9.046 to -0.3347"}, {"measurement": "Body weight, Mean Diff. ND vs. treated", "setting": "[1]; 0.1 µmol dose group", "value": -4.69}, {"measurement": "Body weight, 95.00% CI of diff. Vehicle vs. treated", "setting": "[1]; 0.1 µmol dose group", "value": "5.485 to 13.92"}, {"measurement": "Body weight, Mean Diff. Vehicle vs. treated", "setting": "[1]; 0.1 µmol dose group", "value": 9.704}, {"measurement": "Body weight, 95.00% CI of diff. ND vs. treated", "setting": "[1]; 1 µmol dose group", "value": "-9.111 to -0.3997"}, {"measurement": "Body weight, Mean Diff. ND vs. treated", "setting": "[1]; 1 µmol dose group", "value": -4.755}, {"measurement": "Body weight, 95.00% CI of diff. Vehicle vs. treated", "setting": "[1]; 1 µmol dose group", "value": "5.420 to 13.86"}, {"measurement": "Body weight, Mean Diff. Vehicle vs. treated", "setting": "[1]; 1 µmol dose group", "value": 9.639}, {"measurement": "Body weight, group mean (Fig. 3a)", "setting": "[1]; 0.1 µmol dose group", "value": 33.21}, {"measurement": "Body weight, individual mice (Fig. 3a)", "setting": "[1]; 0.1 µmol dose group", "value": "29.83 and 31.33 and 29.67 and 36.57 and 36.31 and 35.71 and 35.26 and 34.18 and 33.67 and 29.56"}, {"measurement": "Body weight, group mean (Fig. 3a)", "setting": "[1]; 1 µmol dose group", "value": 33.27}, {"measurement": "Body weight, individual mice (Fig. 3a)", "setting": "[1]; 1 µmol dose group", "value": "32.13 and 30.51 and 31.76 and 34.15 and 34.95 and 32.95 and 36.28 and 31.91 and 35.57 and 32.53"}, {"measurement": "decrease of body weight compared to vehicle", "setting": "[1]; i.p. 0.1 µmol/kg day", "value": "~ 20%"}, {"measurement": "decrease of body weight compared to vehicle", "setting": "[1]; i.p. 1 µmol/kg day", "value": "~ 20%"}, {"measurement": "Fig. 3b (weight of epididymal adipose tissue), group mean (Mean 2)", "setting": "[2]; 0.1 µmol, HFD mice", "value": 1486}, {"measurement": "Fig. 3b (weight of epididymal adipose tissue), Mean Diff. ND vs. treatment (Tukey)", "setting": "[2]; 0.1 µmol", "value": -802.3}, {"measurement": "Fig. 3b (weight of epididymal adipose tissue), Mean Diff. Vehicle vs. treatment (Tukey)", "setting": "[2]; 0.1 µmol", "value": 1372}, {"measurement": "Fig. 3b (weight of epididymal adipose tissue), group mean (Mean 2)", "setting": "[2]; 1 µmol, HFD mice", "value": 1093}, {"measurement": "Fig. 3b (weight of epididymal adipose tissue), Mean Diff. ND vs. treatment (Tukey)", "setting": "[2]; 1 µmol", "value": -410.1}, {"measurement": "Fig. 3b (weight of epididymal adipose tissue), Mean Diff. Vehicle vs. treatment (Tukey)", "setting": "[2]; 1 µmol", "value": 1765}, {"measurement": "Epididymal adipose weight, individual mice (Fig. 3b)", "setting": "[2]; HFD mice, 0.1 µmol dose group", "value": "1120.1 and 1287.3 and 1051.5 and 1562.9 and 1102.8 and 1733.2 and 1866.1 and 1900.9 and 1746.2 and 1485.7"}, {"measurement": "Epididymal adipose weight, individual mice (Fig. 3b)", "setting": "[2]; HFD mice, 1 µmol dose group", "value": "1157.5 and 882.3 and 1400.3 and 1216.9 and 1046.3 and 975.7 and 1192.5 and 1112.9 and 1063.5 and 886.8"}, {"measurement": "weight of the epididymal adipose tissue vs vehicle", "setting": "[2]; HFD mice, i.p., dose not given (0.1 or 1 µmol/kg day), 3 weeks", "value": "decreased significantly"}, {"measurement": "Serum TC (Fig. 4a), individual mouse values", "setting": "[3]; 0.1 µmol, HFD mice", "value": "76.25 and 108.417 and 114.042 and 114.792 and 113.958 and 112.208 and 91.25 and 101.875 and 101.042 and 98.458"}, {"measurement": "Serum TG (Fig. 4b), individual mouse values", "setting": "[3]; 0.1 µmol, HFD mice", "value": "47.583 and 67.583 and 60.917 and 64.75 and 51.417 and 64.25 and 45.083 and 40.917 and 120.083"}, {"measurement": "Serum TC (Fig. 4a), group mean (Mean 2)", "setting": "[3]; 0.1 µmol, HFD mice", "value": 103.2}, {"measurement": "Serum TC (Fig. 4a), Mean Diff. ND vs. treatment (Tukey)", "setting": "[3]; 0.1 µmol", "value": 76.19}, {"measurement": "Serum TC (Fig. 4a), Mean Diff. Vehicle vs. treatment (Tukey)", "setting": "[3]; 0.1 µmol", "value": 146.8}, {"measurement": "Serum TC (Fig. 4a), individual mouse values", "setting": "[3]; 1 µmol, HFD mice", "value": "114.667 and 103 and 123.208 and 101.042 and 100.208 and 100.542 and 101.667 and 117.708 and 116.875 and 87.208"}, {"measurement": "Serum TG (Fig. 4b), individual mouse values", "setting": "[3]; 1 µmol, HFD mice", "value": "89.25 and 100.917 and 117.583 and 93.417 and 90.917 and 81.75 and 125.917 and 105.083 and 72.583 and 61.75"}, {"measurement": "Serum TC (Fig. 4a), group mean (Mean 2)", "setting": "[3]; 1 µmol, HFD mice", "value": 106.6}, {"measurement": "Serum TC (Fig. 4a), Mean Diff. ND vs. treatment (Tukey)", "setting": "[3]; 1 µmol", "value": 72.81}, {"measurement": "Serum TC (Fig. 4a), Mean Diff. Vehicle vs. treatment (Tukey)", "setting": "[3]; 1 µmol", "value": 143.5}, {"measurement": "Mean Diff., ND vs. treated (Fig. 4b)", "setting": "[3]; ND minus 0.1 µmol group", "value": 84.09}, {"measurement": "Mean Diff., ND vs. treated (Fig. 4b)", "setting": "[3]; ND minus 1 µmol group", "value": 52.85}, {"measurement": "Mean Diff., Vehicle vs. treated (Fig. 4b)", "setting": "[3]; Vehicle minus 0.1 µmol group", "value": 53.09}, {"measurement": "Mean Diff., Vehicle vs. treated (Fig. 4b)", "setting": "[3]; Vehicle minus 1 µmol group", "value": 21.86}, {"measurement": "Mean (Fig. 4b)", "setting": "[3]; 0.1 µmol, HFD mice", "value": 62.68}, {"measurement": "Mean (Fig. 4b)", "setting": "[3]; 1 µmol, HFD mice", "value": 93.92}, {"measurement": "serum triglyceride level vs vehicle", "setting": "[3]; HFD mice, i.p. 0.1 µmol/kg day, 3 weeks", "value": "decreased"}, {"measurement": "Liver TC (Fig. 4c), individual mouse values", "setting": "[4]", "value": "1.641 and 1.677 and 1.869 and 2.323 and 2.266 and 1.713 and 1.915 and 2.417 and 2.05 and 2.041"}]}
